Here are results for two substances from patent publication US11597936B2, “Recombinant Dgkk gene for fragile X syndrome gene therapy” (UNIVERSITE DE STRASBOURG, priority 2016, dated 2023).

For data set [1], the system named is Cos-1 cells. Put plainly: Western blot (anti-HA) of Dgkk constructs in Cos-1 cells, siFmr1 versus siRNA control. In kind it is cell-based. As to conditions: siFmr1 vs siCtrl, HA signal normalized to GAPDH. How it is done: COS cells (ATCC® CRL-1650™) were grown in DMEM supplemented with 10% fetal calf serum, 1 g/l glucose in the presence of antibiotics at 37° C. in 5% CO2. The day before transfection, 4×10^4 cells were plated into 24-well format plates in 500 μl of antibiotic-free medium.
Transfections of sh-RNAs were performed in triplicate with Lipofectamine 2000 (Invitrogen, Carlsbad, Calif.) on 60 000 cells as directed by the manufacturer with 20 pmol of siRNA (Control or On Target plus Smart Pool mouse FMR1, Thermo) in a final volume of 600 μl. Twenty-four hours later, 0.6 μg of a plasmid construction and 20 pmol of shRNA were co-transfected as above. Fourty-eight hours later, cells washed twice in PBS were lysed directly in the loading buffer (100 mM Tris-HCl, pH 6.8, 4% SDS, 30% glycerol, 1.4 M ß-mercaptoethanol, and bromophenol blue) for 3 min at 95° C. Proteins were analyzed on a 10% SDS-polyacrylamide gel and immunoblotted onto PVDF (Millipore) in Tris-glycine-SDS/20% ethanol buffer for 1 h at 200 mA. […]
In a second series of experiments, the inventors aimed to determine which part of the 5′ region of Dgkk is important in the control of Dgkk expression by FMRP. […] Then, as previously described, Cos-1 cells were transfected by these constructs in the presence or absence of Fmr1 siRNA and the expression of the constructs was analyzed by western-blot.

Data set [2] deals with CA1 pyramidal neurons. As to the kind of experiment: Dendritic spine morphology and dynamics in hippocampal organotypic slice cultures. In kind it is cell-based, mouse. The source says: A short hairpin RNA designed to target Dgkk (shRNA Dgkk, 5′-[…], SEQ ID No: 6) and the selected shRNA-scramble sequence (5′-[…], SEQ ID No: 7) that has no match in silico in the mouse genome, were cloned under the control of the mU6 promoter into a pAAV-MCS derived plasmid expressing enhanced green fluorescent protein (EGFP) under the control of a CMV promoter. Overexpression of Dgkk was achieved by cloning HA-tagged Δ5′reg-Dgkk under the control of the human Synapsin-1 gene promoter replacing EGFP in the control plasmid pENN.AAV.hSynapsin1.EGFP.RBG (provided by the Penn Vector Core at University of Pennsylvania). Recombinant adeno-associated virus serotype 9 (AAV9) co-expressing EGFP and shRNA (AAV9-EGFP-shRNA-Dgkk and control AAV9-EGFP-shRNA-scramble) as well as AAV9 expressing HA-Dgkk or EGFP (AAV9-hSynapsin1-HA-Dgkk and control AAV9-hSynapsin1-EGFP) were generated. AAV production was carried out using the AAV Helper-Free system (Agilent Technologies) with some modifications. AAV9 vectors were generated by triple transfection of 293T/17 cell line using either pAAV-EGFP-shRNA-Dgkk or pAAV-EGFP-shRNA-scramble, pAAV-hSynapsin1-HA-Δ5′reg-Dgkk or pENN.AAV.hSynapsin1.EGFP.RBG together with pAAV2/9 (Penn Vector Core) containing cap genes of AAV serotype 9 and pHelper. Two days after transfection, cells were collected, lysed by three freeze/thaw cycles in dry ice-ethanol and 37° C. baths, further treated with 100 U/ml Benzonase (Novagen) for 30 min at 37° C. and clarified by centrifugation. Viral vectors were purified by iodixanol (Optiprep™, Axis Shield) gradient ultracentrifugation followed by dialysis and concentration against PBS containing 0.5 mM MgCl2 using centrifugal filters (Amicon Ultra-15 100 K). Viral particles were quantified by real time PCR using a linearized standard plasmid pAAV-EGFP.
Hippocampal organotypic slice cultures (400 μm thick) were prepared from postnatal 5-6 day old C57BL/6 Fmr1+/y or its Fmr1−/y littermate mice using a protocol approved by the Geneva veterinary office and maintained under culture conditions as described (De Roo M et al, 2008, Cereb Cortex, 18(1):151-161). Transfection was carried out at DIV7 with a biolistic method (Helios Gene Gun, Bio-Rad) using gold beads coated with mRFP and either pAAV-EGFP-shRNA-Dgkk, pAAV-EGFP-shRNA-scramble, pAAV-hSynapsin1-EGFP or pAAV-hSynapsin1-HA-[…]. Repetitive confocal imaging was performed as previously described (De Roo M et al, 2008, Cereb Cortex, 18(1):151-161). Briefly, dendritic segments of CA1 transfected neurons (30-40 μm in length) were imaged from DIV12 to DIV15 (at 0, 5, 24, 48 and 72 hours) using an Olympus Fluoview 300 system and analysis of the Z-stacked images so obtained was performed using Osirix software.

Setting [3] is: versus shRNA-scramble transfected cells.

With “Dgkk-FL: plasmid carrying all mouse Dgkk exons, its 5′UTR, its 3′UTR and a HA tag (SEQ ID No: 8)”, the “reduction of the expression level of the construct when FMRP expression is reduced” value in data set [1] is recorded as “about 70%”.

For “shRNA-Dgkk: short hairpin RNA designed to target Dgkk (SEQ ID No: 6), in pAAV plasmid expressing EGFP (guide GGAATGCACTACTGGTATTCC; shRNA hairpin expressed from pAAV-EGFP vector)”, the spine density result in data set [2] (CA1 pyramidal neurons, biolistic transfection) is given as “Absence of changes”. Besides, in data set [2] (setting [3]), the “lost spines per 24 h” value was “Increase”, the multi-head spines entry is “Increase”, the mushroom spines entry is recorded as “decrease” and the “new spine formation per 24 h” value was “Increase”.
